Tests used:
[1] = tested on: Vespula maculifrons (eastern yellowjacket); test: Field trap captures, BARC-W, 7 days in September (FIG. 1); assay type: in vivo
Method: (§1) Field tests were carried out using lures prepared as described in Example 1. Traps baited with various prepared lures, in addition to unbaited control traps, were hung from trees or fences at three locations: Beltsville Agricultural Research Center-West (BARC-W), Beltsville, Md.; University of Maryland Apiary; and a private residence, Silver Spring, Md., with apple trees on the property. Most tests were conducted late in the season when populations of yellowjackets were greatest. After exposure in the field for varying periods of time, traps were brought to the laboratory for sorting and counting insects by species.
In initial experiments, the equivalence of H vs. A was tested along with the synergism between IB/AA and H/T/B or A/T/B blends. […] The use of acetal (A) is considered more desirable than hexenal (H) for this type of lure because of its lower volatility and greater stability.
Polyvinyl chloride (PVC) plugs containing an about 16% load of volatiles were prepared. For purposes of example, lures containing (E)-2-hexenal diethyl acetal, A (Bedoukian, Inc., Danbury, Conn.) and linalool, L (Aldrich Chemicals, Milwaukee, Wis.) are described.
PVC resin (200 g) was mixed thoroughly with 60 ml dioctyl phthalate, a blend of 30 ml of A with 20 ml of L was poured into the plasticized PVC and mixed. […]

[2] = tested on: Vespula maculifrons; test: Field trap captures, BARC-W, 9 days in September/October; assay type: in vivo
Method: as §1
The equivalence of T vs. L was tested along with the effect of B and the possible synergism of HB. Six chemical treatments in replicates of three were tested over a period of 9 days in September/October at BARC-W: IB/AA; HB+A/T/B; IB/AA+A/T;
The test also corroborates earlier results indicating localized distribution of yellowjacket species since no V. squamosa were captured and only one individual of V. germanica was caught. The synergistic effect between IB/AA and the novel blends was also confirmed.
Polyvinyl chloride (PVC) plugs containing an about 16% load of volatiles were prepared. For purposes of example, lures containing (E)-2-hexenal diethyl acetal, A (Bedoukian, Inc., Danbury, Conn.) and linalool, L (Aldrich Chemicals, Milwaukee, Wis.) are described. […]

## CCC/C=C/C(OCC)OCC [A, (E)-2-hexenal diethyl acetal]
[1]
  equivalence of H vs. A: can effectively replace H in this system

## OCc1ccccc1 [B, benzyl alcohol]
[2]
  effect of B on lure activity: is not essential for lure activity

## C=CC(C)(O)CCC=C(C)C (stereo not drawn) [L, linalool]
[2]
  equivalence of T vs. L: effectively substitutes for T
